Reference: patent US9034886B2, “4-aminoquinazoline derivatives and uses thereof” (Shanghai Institute of Pharmaceutical Industry, priority 2011, dated 2015)
pIC50: −log10 of the molar value.

Columns and labels:
HDACs = assay: In vitro inhibition of HDACs (HDAC Inhibitor Drug Screening Kit, Biovision K340-100); type: biochemical; conditions: for inhibitory activity on HDACs compared with MS-275: concentrations of 2 mM, 200 μM, and 40 μM
Protocol: The in vitro inhibitory activities of the compounds towards HDACs were tested according to the instructions in the HDAC Inhibitor Drug Screening Kit (Biovision/Catalog #K340-100).
(1) The compounds to be tested were each individually prepared as 2 mM, 200 μM and 40 μM solutions and their inhibitory activities at these concentrations were tested.

HDAC1 = HDAC1 (Homo sapiens (Human), UniProt Q13547); assay: In vitro inhibition of subtype HDAC1 (HDAC1 Inhibitor Drug Screening Kit, Biovision); type: biochemical; conditions: for inhibition at 1 µM / inhibition at 10 µM: read-out: % Inhibition towards HDAC1; for inhibitory activity against HDAC1 compared with MS-275: both concentrations 10 μM and 1 μM
Sequence of HDAC1 (Q13547 whole entry): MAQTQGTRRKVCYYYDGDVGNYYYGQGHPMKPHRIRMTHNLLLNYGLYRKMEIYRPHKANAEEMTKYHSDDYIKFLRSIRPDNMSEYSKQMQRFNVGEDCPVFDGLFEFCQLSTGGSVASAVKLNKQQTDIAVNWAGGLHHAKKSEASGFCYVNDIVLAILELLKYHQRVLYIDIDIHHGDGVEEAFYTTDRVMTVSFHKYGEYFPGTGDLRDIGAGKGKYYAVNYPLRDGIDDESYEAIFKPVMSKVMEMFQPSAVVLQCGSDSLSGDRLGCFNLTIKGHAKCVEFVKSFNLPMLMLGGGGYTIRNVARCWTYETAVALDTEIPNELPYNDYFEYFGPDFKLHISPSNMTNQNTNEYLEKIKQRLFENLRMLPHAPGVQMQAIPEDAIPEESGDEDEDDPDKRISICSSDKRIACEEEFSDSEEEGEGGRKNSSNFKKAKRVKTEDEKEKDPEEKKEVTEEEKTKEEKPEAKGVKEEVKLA
Protocol: The in vitro inhibitory activities of the compounds towards the subtype HDAC1 were tested according to the instructions in the HDAC1 Inhibitor Drug Screening Kit (Biovision).
(1) The compounds to be tested were each individually prepared as 10 μM and 1 μM solutions and their inhibitory activities at these concentrations were tested.
Each dilution sample was placed in two wells and the enzyme inhibition IC50 of the compound was tested.

[1] = system: Hut78 T lymphocytic leukemia cells; assay: In vitro anti-proliferative effect, CCK-8 method, Hut78; type: cell-based; conditions: Homo sapiens, HuT78; for inhibition at 10 µM / inhibition at 100 µM: read-out: Hut-78 (inhibition %)
Method in brief: (§1)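 Percent growth inhibition, measured with CCK-8, in Hut78 and K562 leukemia cells at two compound concentrations, 10 μM and 100 μM.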

[2] = system: PANC-1 human pancreatic cancer cells; assay: In vitro anti-proliferative effect, CCK-8 method, PANC-1; type: cell-based; conditions: Homo sapiens, PANC-1
Method in brief: (§2)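 Each compound is applied at 100 μM and at 10 μM. Inhibition percentages come from the CCK-8 method.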

[3] = system: Jurkat E6-1 human T-cell lymphoma; assay: In vitro anti-proliferative effect, CCK-8 method, Jurkat E6-1; type: cell-based; conditions: Homo sapiens, Jurkat E6.1
Method in brief: as §2

[4] = system: K562 human chronic myelogenous leukemia cells; assay: In vitro anti-proliferative effect, CCK-8 method, K562; type: cell-based; conditions: Homo sapiens, K562
Method in brief: as §1

[5] = system: A549 human lung cancer cells; assay: In vitro anti-proliferative effect, CCK-8 method, A549; type: cell-based; conditions: Homo sapiens, A549
Method in brief: as §2

[6] = system: MDA-MB-435s human breast cancer cells; assay: In vitro anti-proliferative effect, CCK-8 method, MDA-MB-435s; type: cell-based; conditions: Homo sapiens, MDA-MB-435S
Method in brief: as §2

[7] = system: Hep3B2.1-7 human liver cancer cells; assay: In vitro anti-proliferative effect, CCK-8 method, Hep3B; type: cell-based; conditions: Homo sapiens; for inhibition at 10 µM / inhibition at 100 µM: Hep3B cell strain, CCK-8 method; for inhibition at 10 µM: compound at 10 μM; for inhibition at 100 µM: compound at 100 μM
Method in brief: as §2

[8] = system: PC-3 human prostate cancer; assay: In vitro anti-proliferative effect, CCK-8 method, PC-3; type: cell-based; conditions: Homo sapiens; for inhibition at 10 µM / inhibition at 100 µM: PC-3 cell strain, CCK-8 method; for inhibition at 10 µM: compound at 10 μM; for inhibition at 100 µM: compound at 100 μM
Method in brief: as §2

[9] = system: Colo320 human colorectal cancer cell lines; assay: In vitro anti-proliferative effect, CCK-8 method, Colo320; type: cell-based; conditions: Homo sapiens, COLO 320; for inhibition at 10 µM / inhibition at 100 µM: Colo320 cell strain, CCK-8 method; for inhibition at 10 µM: compound at 10 μM; for inhibition at 100 µM: compound at 100 μM
Method in brief: as §2

[10] = Maximum tolerance dose through intragastrical administration; type: in vivo; conditions: mice, administrated intragastrically
Protocol: Forty ICR mice, half female and half male, weighing […] were divided into four groups, 10 mice in each group. After the mice were fasted for 6 h, the compound to be tested was administrated intragastrically to each group at a volume of 0.3 ml/10 g by using a sterile plastic syringe. General physical signs and the deaths of the animals were record at 1, 2 and 4 h after the administration. The animals were then observed continuously for 14 days and their weights, physical signs and deaths were observed and recorded every day. Dead animals were dissected to see if there was any visible pathological change in the animal's viscera and pathological examination was performed on suspicious tissues and organs. A part of the experimental results is as follows.

Row | SMILES | pIC50 (HDACs) | Inhibition percentage (%) towards HDACs (HDACs; 40 μM) | Inhibition percentage (%) towards HDACs (HDACs; 200 μM) | Inhibition percentage (%) towards HDACs (HDACs; 2 mM) | inhibition at 1 µM (HDAC1) | inhibition at 10 µM (HDAC1) | inhibition at 10 µM [1] | inhibition at 100 µM [1] | inhibition at 10 µM [2] | inhibition at 100 µM [2] | inhibition at 10 µM [3] | inhibition at 100 µM [3] | inhibition at 10 µM [4] | inhibition at 100 µM [4] | inhibition at 10 µM [5] | inhibition at 100 µM [5] | inhibition at 10 µM [6] | inhibition at 100 µM [6] | inhibition at 10 µM [7] | inhibition at 100 µM [7] | also measured
1 | Nc1ccccc1NC(=O)c1ccc(Nc2ncnc3ccc([N+](=O)[O-])cc23)cc1 [Compound V-11, N-(2-aminophenyl)-4-(6-nitroquinazoline-4-amino)benzamide] | 5.51 | 4.1% | 11.1% | 49.0% | 26.2% | 33.4% | 28.5% | 84.6% | 24% | 21.1% | 18.6% | 26.3% | 20.4% | 32.3% | 15.3% | 12.9% | 30.6% | 42.4% | 22.3% | 43% | inhibitory activity according to in vitro IC50 value against HDACs compared with MS-275 (HDACs): better inhibitory activities than MS-275; inhibition at 10 µM [8]: 21.9%; inhibition at 100 µM [8]: 18.8%; inhibition at 10 µM [9]: 2.6%; inhibition at 100 µM [9]: 4.1%; maximum tolerance dose [10]: over 2000 mg/kg
2 | Nc1ccccc1NC(=O)c1ccc(Nc2ncnc3cc(F)ccc23)cc1 [Compound V-13, N-(2-aminophenyl)-4-(7-fluoroquinazoline-4-amino)benzamide] | 5.94 | 1.0% | 20.1% | 50.0% | 53.1% | 83% | 19.8% | 54% | 26% | 36.8% | 19.1% | 77.8% | 25% | 65.1% | 18.3% | 57.1% | 27.5% | 89.1% | 21.5% | 69.8% | inhibitory activity against HDAC1 compared with MS-275 (HDAC1): superior to that of MS-275; inhibition at 10 µM [8]: -1.9%; inhibition at 100 µM [8]: 48.5%; inhibition at 10 µM [9]: 0.9%; inhibition at 100 µM [9]: 34.3%; maximum tolerance dose [10]: over 5000 mg/kg
3 | Nc1ccc(F)cc1NC(=O)c1ccc(Nc2ncnc3c(F)cccc23)cc1 [Compound V-14, N-(2-amino-5-fluorophenyl)-4-(8-fluoroquinazoline-4-amino)benzamide] | 5.42 | 46.8% | 67.1% | 94.8% | 1.48% | 28.9% | 22% | 91.1% | -2.8% | 15.7% | 23.8% | 96.5% | 34% | 88.7% | -17.6% | 72.2% | 19.5% | 63.9% | 7.2% | 79.3% | inhibitory activity according to in vitro IC50 value against HDACs compared with MS-275 (HDACs): better inhibitory activities than MS-275; inhibitory activity on HDACs compared with MS-275 (HDACs): significantly stronger inhibitory activities than MS-275; pIC50 [1]: 7.25; pIC50 [3]: 5.86; pIC50 [4]: 5.55; pIC50 [5]: 5.29; pIC50 ([7]; Hep3B): 4.80; pIC50 [8]: 5.45; inhibition at 10 µM [8]: 22.9%; inhibition at 100 µM [8]: 84.4%; pIC50 [9]: 4.57; inhibition at 10 µM [9]: -14.3%; inhibition at 100 µM [9]: 82.7%; maximum tolerance dose [10]: over 2000 mg/kg
4 | COc1cc2ncnc(Nc3ccc(C(=O)Nc4ccccc4N)cc3)c2cc1OCCCN1CCOCC1 [Compound V-17, N-(2-aminophenyl)-4-[7-methoxy-6-(3-morpholinylpropoxy)quinazoline-4-amino]benzamide] | 5.76 | 39.7% | 60.7% | 86.7% | 53.9% | 76.2% | 73.4% | 93.5% | 12% | 25.1% | 20.3% | 80.2% | 33.6% | 72.4% | 29.8% | 67.9% | 32.5% | 73.3% | 18.4% | 45.7% | inhibitory activity according to in vitro IC50 value against HDACs compared with MS-275 (HDACs): better inhibitory activities than MS-275; inhibitory activity on HDACs compared with MS-275 (HDACs): significantly stronger inhibitory activities than MS-275; pIC50 (HDAC1): 6.13; inhibitory activity against HDAC1 compared with MS-275 (HDAC1): superior to that of MS-275; inhibition at 10 µM [8]: 41.8%; inhibition at 100 µM [8]: 67.1%; inhibition at 10 µM [9]: 4.9%; inhibition at 100 µM [9]: 28.9%; maximum tolerance dose [10]: over 5000 mg/kg
5 | COc1cc2ncnc(Nc3ccc(C(=O)Nc4cc(F)ccc4N)cc3)c2cc1OCCCN1CCOCC1 [Compound V-18, N-(2-amino-5-fluorophenyl)-4-[7-methoxy-6-(3-morpholinylpropoxy)quinazoline-4-amino]benzamide] | 5.99 | 30.4% | 56.8% | 66.0% | 59.8% | 80.8% | 39.9% | 82.3% | 0.9% | 23.9% | 76.6% | 95.7% | 58.5% | 87.5% | 9.5% | 79.1% | 22.7% | 81.4% | 13.8% | 75.1% | pIC50 (HDAC1): 6.48; inhibitory activity against HDAC1 compared with MS-275 (HDAC1): superior to that of MS-275; inhibition at 10 µM [8]: 45.2%; inhibition at 100 µM [8]: 72.2%; inhibition at 10 µM [9]: 7.7%; inhibition at 100 µM [9]: 56.3%; maximum tolerance dose [10]: over 2000 mg/kg
6 | CS(=O)(=O)CCNCc1ccc(-c2ccc3ncnc(Nc4ccc(C(=O)Nc5cc(F)ccc5N)cc4)c3c2)o1 [Compound V-20, N-(2-amino-5-fluorophenyl)-4-[6-(5-((2-(methylsulfonyl)ethylamino)methyl)furyl)quinazoline-4-amino]benzamide] | 5.91 | 28.2% | 56.9% | 67.5% | 53.5% | 77.4% | 44.4% | 85.7% | -1.7% | 52% | 84.8% | 89.4% | 64.3% | 92.9% | 0% | 41.3% | 17% | 57.8% | 23.5% | 60% | inhibitory activity against HDAC1 compared with MS-275 (HDAC1): superior to that of MS-275; inhibition at 10 µM [8]: 48.1%; inhibition at 100 µM [8]: 75.5%; inhibition at 10 µM [9]: 6.5%; inhibition at 100 µM [9]: 58.8%; maximum tolerance dose [10]: over 5000 mg/kg
